Assay results published in PubChem BioAssay (NCI).
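Cultured in 96-well plates, cells were exposed to test compound for 48 hours across five concentrations. TGI: total growth inhibition.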

How the values were obtained:
Experiment in all cases: DTP human tumour cell line panel, 48 h
KM20L2 colon = test system: KM20L2 colon
TK-10 renal = test system: TK-10 renal
SK-MEL-5 melanoma = test system: SK-MEL-5 melanoma
HOP-62 NSCLC = test system: HOP-62 NSCLC
NCI-H226 lung = test system: NCI-H226 lung
ACHN renal = test system: ACHN renal
RPMI-8226 leukemia = test system: RPMI-8226 leukemia
DLD-1 colon = test system: DLD-1 colon
SNB-75 CNS = test system: SNB-75 CNS
NCI-H522 lung = test system: NCI-H522 lung
HL-60(TB) leukemia = test system: HL-60(TB) leukemia
UO-31 renal = test system: UO-31 renal
MALME-3M melanoma = test system: MALME-3M melanoma
LXFL 529 NSCLC = test system: LXFL 529 NSCLC
DMS 273 small cell lung = test system: DMS 273 small cell lung
RXF-631 renal = test system: RXF-631 renal
NCI-H460 lung = test system: NCI-H460 lung
A549 NSCLC = test system: A549 NSCLC
A498 renal = test system: A498 renal
XF 498 CNS = test system: XF 498 CNS
M14 melanoma = test system: M14 melanoma
OVCAR-4 ovarian = test system: OVCAR-4 ovarian
CAKI-1 renal = test system: CAKI-1 renal
HT29 colon = test system: HT29 colon
SK-MEL-2 melanoma = test system: SK-MEL-2 melanoma
LOX IMVI melanoma = test system: LOX IMVI melanoma
DMS 114 small cell lung = test system: DMS 114 small cell lung
UACC-257 melanoma = test system: UACC-257 melanoma
786-0 renal = test system: 786-0 renal
HOP-18 NSCLC = test system: HOP-18 NSCLC
K-562 leukemia = test system: K-562 leukemia
SK-OV-3 ovarian = test system: SK-OV-3 ovarian
CCRF-CEM leukemia = test system: CCRF-CEM leukemia
COLO 205 colon = test system: COLO 205 colon
SK-MEL-28 melanoma = test system: SK-MEL-28 melanoma
M19-MEL melanoma = test system: M19-MEL melanoma
UACC-62 melanoma = test system: UACC-62 melanoma
SN12C renal = test system: SN12C renal
IGROV1 ovarian = test system: IGROV1 ovarian
HOP-92 NSCLC = test system: HOP-92 NSCLC
SNB-19 CNS = test system: SNB-19 CNS
RXF 393 renal = test system: RXF 393 renal
SW-620 colon = test system: SW-620 colon
U251 CNS = test system: U251 CNS
OVCAR-3 ovarian = test system: OVCAR-3 ovarian
HCT-15 colon = test system: HCT-15 colon
OVCAR-8 ovarian = test system: OVCAR-8 ovarian
MOLT-4 leukemia = test system: MOLT-4 leukemia
HCT-116 colon = test system: HCT-116 colon
NCI-H23 lung = test system: NCI-H23 lung
KM12 colon = test system: KM12 colon
HCC-2998 colon = test system: HCC-2998 colon
SF-295 CNS = test system: SF-295 CNS
EKVX NSCLC = test system: EKVX NSCLC
SF-539 CNS = test system: SF-539 CNS
OVCAR-5 ovarian = test system: OVCAR-5 ovarian
SF-268 CNS = test system: SF-268 CNS
SNB-78 CNS = test system: SNB-78 CNS

SMILES: COc1cccc(C(=O)C2C(=O)N(C)CCc3ccccc32)c1OC (stereo not drawn)
- TGI (KM20L2 colon): > 100 µM
- TGI (TK-10 renal): > 100 µM
- TGI (SK-MEL-5 melanoma): > 100 µM
- TGI (HOP-62 NSCLC): > 100 µM
- TGI (NCI-H226 lung): > 100 µM
- TGI (ACHN renal): > 100 µM
- TGI (RPMI-8226 leukemia): > 100 µM
- TGI (DLD-1 colon): > 100 µM
- TGI (SNB-75 CNS): > 100 µM
- TGI (NCI-H522 lung): > 100 µM
- TGI (HL-60(TB) leukemia): > 100 µM
- TGI (UO-31 renal): > 100 µM
- TGI (MALME-3M melanoma): > 100 µM
- TGI (LXFL 529 NSCLC): > 100 µM
- TGI (DMS 273 small cell lung): > 100 µM
- TGI (RXF-631 renal): > 100 µM
- TGI (NCI-H460 lung): > 100 µM
- TGI (A549 NSCLC): > 100 µM
- TGI (A498 renal): > 100 µM
- TGI (XF 498 CNS): > 100 µM
- TGI (M14 melanoma): > 100 µM
- TGI (OVCAR-4 ovarian): > 100 µM
- TGI (CAKI-1 renal): > 100 µM
- TGI (HT29 colon): > 100 µM
- TGI (SK-MEL-2 melanoma): > 100 µM
- TGI (LOX IMVI melanoma): > 100 µM
- TGI (DMS 114 small cell lung): > 100 µM
- TGI (UACC-257 melanoma): > 100 µM
- TGI (786-0 renal): > 100 µM
- TGI (HOP-18 NSCLC): > 100 µM
- TGI (K-562 leukemia): > 100 µM
- TGI (SK-OV-3 ovarian): > 100 µM
- TGI (CCRF-CEM leukemia): > 100 µM
- TGI (COLO 205 colon): > 100 µM
- TGI (SK-MEL-28 melanoma): > 100 µM
- TGI (M19-MEL melanoma): > 100 µM
- TGI (UACC-62 melanoma): > 100 µM
- TGI (SN12C renal): > 100 µM
- TGI (IGROV1 ovarian): > 100 µM
- TGI (HOP-92 NSCLC): > 100 µM
- TGI (SNB-19 CNS): > 100 µM
- TGI (RXF 393 renal): > 100 µM
- TGI (SW-620 colon): > 100 µM
- TGI (U251 CNS): > 100 µM
- TGI (OVCAR-3 ovarian): > 100 µM
- TGI (HCT-15 colon): > 100 µM
- TGI (OVCAR-8 ovarian): > 100 µM
- TGI (MOLT-4 leukemia): > 100 µM
- TGI (HCT-116 colon): > 100 µM
- TGI (NCI-H23 lung): > 100 µM
- TGI (KM12 colon): > 100 µM

SMILES: N#C/C(=C\c1cccc(O)c1)C(N)=O
- TGI (KM20L2 colon): > 100 µM
- TGI (TK-10 renal): > 100 µM
- TGI (SK-MEL-5 melanoma): > 100 µM
- TGI (HOP-62 NSCLC): > 100 µM
- TGI (NCI-H226 lung): > 100 µM
- TGI (ACHN renal): > 100 µM
- TGI (RPMI-8226 leukemia): > 100 µM
- TGI (DLD-1 colon): > 100 µM
- TGI (SNB-75 CNS): 95.4 µM
- TGI (HCC-2998 colon): > 100 µM
- TGI (NCI-H522 lung): > 100 µM
- TGI (HL-60(TB) leukemia): 43.5 µM
- TGI (UO-31 renal): > 100 µM
- TGI (MALME-3M melanoma): > 100 µM
- TGI (LXFL 529 NSCLC): > 100 µM
- TGI (DMS 273 small cell lung): > 100 µM
- TGI (RXF-631 renal): > 100 µM
- TGI (NCI-H460 lung): > 100 µM
- TGI (A549 NSCLC): > 100 µM
- TGI (A498 renal): > 100 µM
- TGI (XF 498 CNS): > 100 µM
- TGI (M14 melanoma): > 100 µM
- TGI (OVCAR-4 ovarian): > 100 µM
- TGI (CAKI-1 renal): > 100 µM
- TGI (HT29 colon): > 100 µM
- TGI (SK-MEL-2 melanoma): > 100 µM
- TGI (SF-295 CNS): > 100 µM
- TGI (LOX IMVI melanoma): > 100 µM
- TGI (DMS 114 small cell lung): > 100 µM
- TGI (UACC-257 melanoma): > 100 µM
- TGI (EKVX NSCLC): > 100 µM
- TGI (786-0 renal): > 100 µM
- TGI (K-562 leukemia): > 100 µM
- TGI (SK-OV-3 ovarian): > 100 µM
- TGI (CCRF-CEM leukemia): > 100 µM
- TGI (COLO 205 colon): > 100 µM
- TGI (SK-MEL-28 melanoma): > 100 µM
- TGI (M19-MEL melanoma): > 100 µM
- TGI (SF-539 CNS): > 100 µM
- TGI (UACC-62 melanoma): > 100 µM
- TGI (SN12C renal): > 100 µM
- TGI (IGROV1 ovarian): > 100 µM
- TGI (HOP-92 NSCLC): > 100 µM
- TGI (SNB-19 CNS): > 100 µM
- TGI (RXF 393 renal): > 100 µM
- TGI (SW-620 colon): > 100 µM
- TGI (U251 CNS): > 100 µM
- TGI (OVCAR-5 ovarian): > 100 µM
- TGI (SF-268 CNS): > 100 µM
- TGI (OVCAR-3 ovarian): > 100 µM
- TGI (HCT-15 colon): > 100 µM
- TGI (OVCAR-8 ovarian): > 100 µM
- TGI (MOLT-4 leukemia): > 100 µM
- TGI (SNB-78 CNS): > 100 µM
- TGI (HCT-116 colon): > 100 µM
- TGI (NCI-H23 lung): > 100 µM
- TGI (KM12 colon): > 100 µM
